Assay results taken from patent US9681664B2, “Macrocyclic picolinamides as fungicides” (Dow Agrosciences LLC, priority 2012, dated 2017).
Like-named read-outs stand apart in the source and are kept apart here.

Legend:
[1] = test system: Puccinia triticina; Synonym: Puccinia recondite f. sp. tritici; assay: Wheat brown rust (PUCCRT) disease control on wheat seedlings; type: in vivo; settings: Puccinia triticina; for pest or weed control at 121.5 g/ha: low volume application, 121.5 g/H
How it was run: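 Yuma wheat grown to first fully emerged leaf was inoculated with Puccinia triticina spore suspension either before or after fungicide treatment, held overnight at 22° C. and 100% RH in darkness, then kept at 24° C. Fungicide applied by booth sprayer to run-off (acetone/water, 110 ppm Triton X-100) or as EC by track spray.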

[2] = test system: Mycosphaerella graminicola; Anamorph: Septoria tritici; assay: Leaf blotch of wheat (SEPTTR) disease control on wheat seedlings; type: in vivo; settings: Zymoseptoria tritici; for pest or weed control at 121.5 g/ha: low volume application, 121.5 g/H
How it was run: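 Protective or curative format: Septoria tritici inoculation either preceded or followed fungicide application to first-leaf Yuma wheat. Severity scored 0–100%; control expressed versus untreated.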

[3] = 24 h, High volume application, 1 Day Protectant, read-out: PUCCRT 1DP disease control
[4] = 72 h, High volume application, 3 Day Curative, read-out: PUCCRT 3DC disease control
[5] = 24 h, High volume application, 1 Day Protectant, read-out: SEPTTR 1DP disease control
[6] = 72 h, High volume application, 3 Day Curative, read-out: SEPTTR 3DC disease control
[7] = 24 h, Wheat Brown Rust, 1 Day Protectant, high volume application, read-out: Disease Control PUCCRT 1 DP 100 ppm
[8] = 72 h, Wheat Brown Rust, 3 Day Curative, high volume application, read-out: Disease Control PUCCRT 3 DC 100 ppm
[9] = 24 h, Wheat Leaf Blotch, 1 Day Protectant, high volume application, read-out: Disease Control SEPTTR 1 DP 100 ppm
[10] = 72 h, Wheat Leaf Blotch, 3 Day Curative, high volume application, read-out: Disease Control SEPTTR 3 DC 100 ppm
[11] = 24 h, Wheat Brown Rust, 1 Day Protectant, read-out: Disease Control PUCCRT 1 DP 121.5 g/H
[12] = 72 h, Wheat Brown Rust, 3 Day Curative, read-out: Disease Control PUCCRT 3 DC 121.5 g/H
[13] = 24 h, Wheat Leaf Blotch, 1 Day Protectant, read-out: Disease Control SEPTTR 1 DP 121.5 g/H
[14] = 72 h, Wheat Leaf Blotch, 3 Day Curative, read-out: Disease Control SEPTTR 3 DC 121.5 g/H

| Compound | pest or weed control at 100 ppm [1, 3] [%] | pest or weed control at 100 ppm [1, 4] [%] | pest or weed control at 100 ppm [2, 5] [%] | pest or weed control at 100 ppm [2, 6] [%] | pest or weed control at 100 ppm [1, 7] [%] | pest or weed control at 100 ppm [1, 8] [%] | pest or weed control at 100 ppm [2, 9] [%] | pest or weed control at 100 ppm [2, 10] [%] | pest or weed control at 121.5 g/ha [1, 11] [%] | pest or weed control at 121.5 g/ha [1, 12] [%] | pest or weed control at 121.5 g/ha [2, 13] [%] | pest or weed control at 121.5 g/ha [2, 14] [%] |
| --- | --- | --- | --- | --- | --- | --- | --- | --- | --- | --- | --- | --- |
| CCCO[C@H]1[C@H](C)OC(=O)[C@@H](NC(=O)c2nccc(OC)c2OCOC(=O)C(C)C)CCC[C@@H]1OC1CCCC1 [F123] | 80 to 100 | 80 to 100 | 80 to 100 | 80 to 100 | – | – | – | – | – | – | – | – |
| COc1ccnc(C(=O)N[C@H]2CCC[C@H](OCCCC(F)(F)F)[C@@H](Oc3ccccc3)[C@H](C)OC2=O)c1OC(C)=O [F137] | 80 to 100 | 80 to 100 | 80 to 100 | 80 to 100 | – | – | – | – | – | – | – | – |
| COc1ccnc(C(=O)N[C@H]2CCC[C@H](OCC(C)C)[C@@H](OC(=O)C3CC3)[C@H](C)OC2=O)c1OCOC(=O)C(C)C [F52] | 80 to 100 | 80 to 100 | 80 to 100 | 80 to 100 | – | – | – | – | – | – | – | – |
| COc1ccnc(C(=O)N[C@H]2CCC[C@H](OC(=O)C3CCCC3)[C@@H](OC(=O)C3CCCC3)[C@H](C)OC2=O)c1OCOC(C)=O [F88] | 80 to 100 | 80 to 100 | 80 to 100 | 80 to 100 | – | – | – | – | – | – | – | – |
| COCCC(=O)Oc1c(OC)ccnc1C(=O)N[C@H]1CCC[C@H](OCC(C)C)[C@@H](OCCCc2ccccc2)[C@H](C)OC1=O [F215] | 80 to 100 | 80 to 100 | 80 to 100 | 80 to 100 | – | – | – | – | – | – | – | – |
| COc1ccnc(C(=O)N[C@H]2CCC[C@H](Oc3ccccc3)[C@@H](OCC(C)C)[C@H](C)OC2=O)c1O [F27] | 80 to 100 | 80 to 100 | 80 to 100 | 80 to 100 | – | – | – | – | – | – | – | – |
| COc1ccnc(C(=O)N[C@H]2CCC[C@H](Oc3ccccc3)[C@@H](OC(=O)C3CC3)[C@H](C)OC2=O)c1O [F239] | – | – | – | – | 0 to 80 | < 0 | < 0 | 0 to 80 | – | – | – | – |
| COc1ccnc(C(=O)N[C@H]2CCC[C@H](OCCCc3ccccc3)[C@@H](OC3CCCC3)[C@H](C)OC2=O)c1OCOC(C)=O [F225] | 80 to 100 | 80 to 100 | 80 to 100 | 80 to 100 | – | – | – | – | – | – | – | – |
| COc1ccnc(C(=O)N[C@H]2CCC[C@H](OCCCC(F)(F)F)[C@@H](Oc3ccccc3)[C@H](C)OC2=O)c1OCOC(=O)C(C)C [F136] | 80 to 100 | 80 to 100 | 80 to 100 | 80 to 100 | – | – | – | – | – | – | – | – |
| COc1ccc(O[C@H]2CCC[C@H](NC(=O)c3nccc(OC)c3O)C(=O)O[C@@H](C)[C@@H]2OCC(C)C)cc1 [F65] | 80 to 100 | 80 to 100 | 80 to 100 | 0 to 80 | – | – | – | – | – | – | – | – |
| COc1ccnc(C(=O)N[C@H]2CCC[C@H](OC(=O)C3CCCC3)[C@@H](OC(=O)C3CCCC3)[C@H](C)OC2=O)c1OCOC(=O)C(C)C [F99] | 80 to 100 | 80 to 100 | 80 to 100 | 80 to 100 | – | – | – | – | – | – | – | – |
| COc1ccnc(C(=O)N[C@H]2CCC[C@H](OC3CCCC3)[C@@H](OCCCC(F)(F)F)[C@H](C)OC2=O)c1OCOC(=O)C(C)C [F126] | 80 to 100 | 80 to 100 | 80 to 100 | 80 to 100 | – | – | – | – | – | – | – | – |
| COc1ccnc(C(=O)N[C@H]2CCC[C@H](OCC(C)C)[C@@H](Oc3ccc(C)cc3)[C@H](C)OC2=O)c1OCOC(C)=O [F86] | 80 to 100 | 80 to 100 | 80 to 100 | 80 to 100 | – | – | – | – | – | – | – | – |
| COc1ccnc(C(=O)N[C@H]2CCC[C@H](Oc3ccccc3)[C@@H](OCCCC(F)(F)F)[C@H](C)OC2=O)c1OCOC(C)=O [F107] | 80 to 100 | 80 to 100 | 80 to 100 | 80 to 100 | – | – | – | – | – | – | – | – |
| COc1ccnc(C(=O)N[C@H]2CCC[C@H](Oc3ccc(F)cc3)[C@@H](OCC(C)C)[C@H](C)OC2=O)c1O [F56] | 80 to 100 | 80 to 100 | 80 to 100 | 80 to 100 | – | – | – | – | – | – | – | – |
| COc1ccnc(C(=O)N[C@H]2CCC[C@H](Oc3ccccc3)[C@@H](OC(=O)C3CCCC3)[C@H](C)OC2=O)c1OC(C)=O [F235] | – | – | – | – | 80 to 100 | 80 to 100 | 80 to 100 | 80 to 100 | 80 to 100 | 0 to 80 | 80 to 100 | 0 to 80 |
| CCCO[C@H]1[C@H](C)OC(=O)[C@@H](NC(=O)c2nccc(OC)c2OC(C)=O)CCC[C@@H]1Oc1cc(C)cc(C)c1 [F282] | – | – | – | – | 80 to 100 | 80 to 100 | 80 to 100 | 80 to 100 | 80 to 100 | 80 to 100 | 80 to 100 | 80 to 100 |
| CCCO[C@H]1CCC[C@H](NC(=O)c2nccc(OC)c2O)C(=O)O[C@@H](C)[C@@H]1Oc1cccc(F)c1 [F271] | – | – | – | – | 80 to 100 | 80 to 100 | 80 to 100 | 80 to 100 | – | – | – | – |
| CCCOC(=O)O[C@H]1CCC[C@H](NC(=O)c2nccc(OC)c2OC(C)=O)C(=O)O[C@@H](C)[C@@H]1Oc1cc(C)cc(C)c1 [F291] | – | – | – | – | 80 to 100 | 0 to 80 | 80 to 100 | 80 to 100 | – | – | – | – |
| C=C(C)CO[C@H]1CCC[C@H](NC(=O)c2nccc(OC)c2O)C(=O)O[C@@H](C)[C@@H]1OCC(C)C [F220] | 80 to 100 | 80 to 100 | 80 to 100 | 80 to 100 | – | – | – | – | – | – | – | – |
| COc1ccc(O[C@H]2[C@H](C)OC(=O)[C@@H](NC(=O)c3nccc(OC)c3O)CCC[C@@H]2OCC(C)C)cc1 [F57] | 80 to 100 | 80 to 100 | 80 to 100 | 80 to 100 | – | – | – | – | – | – | – | – |
| C=C(C)c1ccc(O[C@H]2[C@H](C)OC(=O)[C@@H](NC(=O)c3nccc(OC)c3O)CCC[C@@H]2OCCC)cc1 [F288] | – | – | – | – | 80 to 100 | 80 to 100 | 80 to 100 | 80 to 100 | – | – | – | – |
| COc1ccnc(C(=O)N[C@H]2CCC[C@H](Oc3ccccc3)[C@@H](OCCCC(F)(F)F)[C@H](C)OC2=O)c1O [F105] | 80 to 100 | < 0 | 80 to 100 | 0 to 80 | – | – | – | – | – | – | – | – |
| CCCO[C@H]1[C@H](C)OC(=O)[C@@H](NC(=O)c2nccc(OC)c2OCOC(C)=O)CCC[C@@H]1Oc1ccc(F)cc1 [F267] | – | – | – | – | 80 to 100 | 80 to 100 | 80 to 100 | 80 to 100 | – | – | – | – |
| COc1ccnc(C(=O)N[C@H]2CCC[C@H](Oc3ccccc3)[C@@H](OCc3ccccc3)[C@H](C)OC2=O)c1OCOC(C)=O [F32] | 80 to 100 | 80 to 100 | 80 to 100 | 80 to 100 | – | – | – | – | – | – | – | – |
